{
  "source": "patent US7544806B2",
  "about": "“Piperidine-substituted indoles-or heteroderivatives thereof” (Boehringer Ingelheim International GmbH, priority 2003, dated 2009)",
  "data": [
    {"smiles": "CCOC(=O)c1cccc(SCCCN2CCC(n3c(CC)cc4cc(F)ccc43)CC2)c1", "note": "[Example 36, 3-{3-[4-(2-Ethyl-5-fluoro-indol-1-yl)-piperidin-1-yl]propylsulfanyl}-benzoic acid ethyl ester]", "values": [
      {"measurement": "melting point", "value": "179 to 181", "unit": "°C"}
    ]}
  ]
}
